# Laboratory results published in patent US4624956A, “Ulcer and gastric secretion inhibiting 4,5,6,7-tetrahydrothiazole[5,4-c]pyridine derivatives” (priority 1983, dated 1986).
# Counter-ions that a name gives are not always drawn.
# Experiments:
# [1] = tested on: oxotremorine syndrome in the mouse; settings: for Anticholinergic activ. (antagonism against oxotremorine syndrome): in vivo, po, 100 mg/kg
# Experimental: (§1) Considering that some anti-ulcer agents display, as does atropine, a remarkable but undesired anticholinergic activity, the compound of the present invention was also assessed for its antagonism against the syndrome induced by intraperitoneally (i.p.) administered oxotremorine in mice, according to the method described by G. P. Leszkovsky and L. Tardos (Europ. J. Pharmac. 1971, 15, 310). Given test compound embodiments were administered to groups of 5 male mice, 20-25 g body weight, at the screening dose of 100 mg/kg per os. The degree of peripheral cholinergic activation induced by oxotremorine was measured b salivation and lachrymation, and the degree of central cholinergic activation by the severity of tremors and hypothermia. […] The approximate acute toxicity (LD50) of the compounds of the invention was determined in the mouse and in the rat by single oral administration of increasing doses and measured on the seventh day after treatment. […] Ranitidine, the well known anti-ulcer agent, was used as comparison compound.
# [2] = tested on: basal gastric secretion output HCl; experiment: gastric anti-secretory activity in rats, pylorus ligature technique; assay type: in vivo, rat (Sprague-Dawley male); settings: Column 4, rat, intraduodenal (i.d.), 4 hours, read-out: Antisecretory activ.: inhibition of basal gastric secretion output HCl (ED50)
# Experimental: The gastric anti-secretory activity of the compound of the present invention was evaluated in rats by the pylorus ligature technique (H. Shay et al, Gastroenterology 5, 43 1945). Six Sprague-Dawley male rats (110-130 g body weight) for each group were used. Twenty-four hours before the test, the rats were deprived of food while water was maintained. On the day of operation, the pylorus was ligated under light ether anaesthesia. Four hours after the ligature the rats were sacrificed, the stomach secretion collected, centrifuged at 3500 r.p.m. for 10 minutes and the volume, less sediment, was determined. The amount of free hydrochloric acid in the gastric juice was determined by titration against 0.1N sodium hydroxide to an end point of pH 7. All the compounds were injected intraduodenally at the time of ligature. The results, expressed as ED50 mg/kg (the dose which reduced the output of hydrochloride acid by 50% in comparison with control rats) are reported in column 4 of Table 1.
# [3] = tested on: gastric ulcers induced in rats by stress; experiment: inhibition of stress ulcers in rats (restraint in water at 23° C. for 4 hours); assay type: in vivo, rat (Charles River male); settings: po, rat, p.o. one hour before stress, number of ulcers
# Experimental: The anti-ulcerogenic activity of the compound of the present invention is shown also by the fact that embodiments of the same are active in the test of inhibition of stress ulcers in rats (restraint in water at 23° C. for 4 hours), according to the method of M. Usardi et al. (Prostaglandins, 8, 43, 1974). The tested compounds were administered per os one hour before the stress. Six Charles River male rats (140±10 g body weight), which had fasted for 16 hours, were used for each experimental group. At the end of the stress, the rats were killed and the gastric ulcers evaluated by counting them. The inhibition of gastric ulcerations, evaluated as percentage inhibition of ulcer index (number of ulcers), was expressed as ED50.
# [4] = tested on: ASA induced gastric ulcers in rats; experiment: inhibition of acetyl salicyclic acid (ASA) induced gastric ulcers in rats; assay type: in vivo, rat (male Sprague Dawley); settings: po, 4 h, rat, p.o. 60 min before ASA 100 mg/kg, dose reducing ulcer index by 50%
# Experimental: The anti-ulcerogenic activity of the present compound is shown, for example, by the fact that embodiments of the present compound are active in the test of inhibition of acetyl salicyclic acid (ASA) induced gastric ulcers in rats as described by M. Hemmati et al in Pharmacology, 9, 374, 1973. Male Sprague Dawley rats [Crl: CD (SD) BR] (Charles River Italy) weighing 190±10 g, which had fasted for 15 hours, but given free access to water, were administered ASA (100 mg/kg per os in 0.2 ml/100 g b.w.) 60 minutes after the oral treatment with the tested compounds. Gastric ulcerations were evaluated 4 hours after ASA treatment. The inhibition of gastric ulcerations, evaluated as percentage inhibition of ulcer index (sum of ulcer length in millimeters), was expressed as ED50 (dose which reduces gastric ulcerations by 50% in comparison with control rats).
# [5] = approximate acute toxicity (LD50) in the mouse, single oral administration; settings: in vivo
# Experimental: as §1
# [6] = molecular target: T1, histamine H2-receptor (Cavia porcellus, UniProt P47747); experiment: histamine H2-receptor antagonist activity in vitro on the guinea pig right atrium; settings: Column 5; guinea pig atria in vitro; screening dose 1 × 10^-5 M; 'More active' continues 'than Ranitid.'; active if it shifts histamine curve right at ≤1×10^-5 M
# T1 construct: histamine-induced rate increase
# Experimental: The compound of the present invention was assayed for histamine H2 -receptor antagonist activity in vitro on the guinea pig right atrium. Male guinea pigs were killed by a blow on the head and the heart was quickly excised and placed in oxygenated Ringer Lock solution of the following composition (g/l): NaCl 9, KCl 0.42, CaCl2 0.24, NaHCO3 0.5, Glucose 1. Atria were dissected away from the rest of the heart, freed from connective tissue, suspended in a 20 ml organ bath containing Ringer Locke solution thermoregulated at 37° C., and carboxygenated with 95% O2 and 5% CO2. Atria spontaneously beating were allowed to adjust to the bath conditions for at least 30 minutes prior to the experiment. Histamine was added to the bath in cumulative fashion starting from 3×10^-7 M to 1×10^-4 M. The histamine-induced increase in atrial rate was allowed to plateau before the next successive concentration was added. After washing and waiting for the recovery of atria rate, a compound was added 5 minutes before repeating the cumulative dose response curve with histamine. A compound is considered an H2 -receptor antagonist if it is able to shift the dose response curve of histamine to the right at a concentration ≤1×10^-5 M. The results are reported in column 5 of Table 1.
# [7] = approximate acute toxicity (LD50) in the rat, single oral administration; settings: in vivo
# Experimental: as §1
# [8] = tested on: duodenal ulcers induced in rats by cysteamine; experiment: inhibition of duodenal ulcers induced in rats by cysteamine; assay type: in vivo; settings: po, rat
# Experimental: The inhibition of duodenal ulcers, induced in rats by cysteamine, was evaluated for the tested compounds as percentage inhibition of ulcer index [sum of the lesioned areas per rat (mm^2)] according to the method of Fujii Y. et al, Jap. J. Pharm. 25, 663, 1975, and expressed as ED50.
# T1 sequence (P47747 whole entry): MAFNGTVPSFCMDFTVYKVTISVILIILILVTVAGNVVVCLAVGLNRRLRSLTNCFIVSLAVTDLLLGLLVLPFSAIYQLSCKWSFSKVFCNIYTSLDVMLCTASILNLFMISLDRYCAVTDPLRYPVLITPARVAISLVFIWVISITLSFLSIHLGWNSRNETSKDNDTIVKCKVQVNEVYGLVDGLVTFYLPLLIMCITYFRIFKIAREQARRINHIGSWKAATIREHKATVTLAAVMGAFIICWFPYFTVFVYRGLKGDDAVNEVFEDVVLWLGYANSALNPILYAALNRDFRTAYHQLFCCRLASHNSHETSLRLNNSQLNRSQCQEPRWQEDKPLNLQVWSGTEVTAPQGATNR
Compound,"peripheral and central effects induced by oxotremorine ([1]; oxotremorine i.p., dose of atropine sulfate not given)",Anticholinergic activ. (antagonism against oxotremorine syndrome) [1],ED50 [2],ED50 [3],ED50 [4],LD50 at 168 h [5],Anti-H2 activ. [6],LD50 at 168 h [7],ED50 [8]
"CN1[C@@H]2CC[C@H]1C[C@@H](OC(=O)C(CO)c1ccccc1)C2 (stereo partly shown) [Atropine sulfate, reference compound]",suppressed both peripheral and central effects,–,–,–,–,–,–,–,–
"CC(C)NC(=S)N1CCc2nc(N)sc2C1 [Example 2, 2-Amino-5-(isopropyl-thiocarbamoyl)-4,5,6,7-tetrahydrothiazolo[5,4-c]pyridine]",–,Inactive,1 mg/kg,2.7 mg/kg,~5 mg/kg,400 to 800 mg/kg,–,–,–
"CNC(=O)N1CCc2nc(N)sc2C1 [Example 5, 2-Amino-5-(methyl-carbamoyl)-4,5,6,7-tetrahydrothiazolo[5,4-c]pyridine]",–,Inactive,> 5 mg/kg,> 25 mg/kg,1.2 mg/kg,200 to 400 mg/kg,–,–,–
"CC(C)NC(=S)N1CCc2nc(NC(=N)N)sc2C1 [Example 15, 2-Guanidino-5-(isopropyl-thiocarbamoyl)-4,5,6,7-tetrahydrothiazolo[5,4-c]pyridine]",–,Inactive,< 5 mg/kg,< 50 mg/kg,0.5 mg/kg,400 to 800 mg/kg,Active,–,–
"CC(C)NC(=O)N1CCc2nc(NC(=N)N)sc2C1 [Example 16, 2-Guanidino-5-(isopropyl-carbamoyl)-4,5,6,7-tetrahydrothiazolo[5,4-c]pyridine]",–,Inactive,0.33 mg/kg,2.9 mg/kg,0.017 mg/kg,200 to 400 mg/kg,More active,> 800 mg/kg,0.4 mg/kg
"N=C(N)Nc1nc2c(s1)CN(C(=O)NC1CC1)CC2 [Example 22, 2-Guanidino-5-(cyclopropyl-carbamoyl)-4,5,6,7-tetrahydrothiazolo[5,4,-c]pyridine]",–,Inactive,1.7 mg/kg,20.2 mg/kg,0.08 mg/kg,> 800 mg/kg,More active,> 800 mg/kg,0.3 mg/kg
"CNC(=C[N+](=O)[O-])NCCSCc1ccc(CN(C)C)o1 [Ranitidine, reference compound]",–,Inactive,7 mg/kg,6.2 mg/kg,0.5 mg/kg,> 800 mg/kg,–,> 800 mg/kg,10.7 mg/kg
